Source: patent US9115143B2, “Substituted indole derivatives as gamma secretase modulators” (Janssen Pharmaceuticals, Inc., priority 2011, dated 2015)
pIC50: −log10 of the molar value.

Legend:
Aβ40 = test: In vivo efficacy B-1b/B-2b: brain soluble Aβ40, MSD electrochemiluminescence multiplex; conditions: mouse brain soluble fraction, dose 30 mg/kg oral dosing, 4 h after dose; untreated control set at 100; read-out: Aβ40 (% vs Ctrl)_Mean
From the text: (§1) To determine whether acute administration of an Aβ42 lowering agent would reduce Aβ42 levels in vivo, non-transgenic rodents, e.g. mice or rats were used. Animals treated with the Aβ42 lowering agent were examined and compared to those untreated or treated with vehicle and brain levels of soluble Aβ42, Aβ40, Aβ38, and Aβ37 were quantitated by Meso Scale Discovery's (MSD) electrochemiluminescence detection technology. Treatment periods varied from hours (h) to days and were adjusted based on the results of the Aβ42 lowering once a time course of onset of effect could be established.
(§2) A typical protocol for measuring Aβ42 lowering in vivo is shown but it is only one of many variations that could be used to optimize the levels of detectable Aβ. For example, Aβ42 lowering compounds were formulated in 20% of Captisol® (a sulfobutyl ether of β-cyclodextrin) in water or 20% hydroxypropyl β cyclodextrin. The Aβ42 lowering agents were administered as a single oral dose or by any acceptable route of administration to overnight fasted animals. After 4 h, the animals were sacrificed and Aβ42 levels were analysed.
(§3) Blood was collected by decapitation and exsanguinations in EDTA-treated collection tubes. Blood was centrifuged at 1900 g for 10 minutes (min) at 4° C. and the plasma recovered and flash frozen for later analysis. The brain was removed from the cranium and hindbrain. The cerebellum was removed and the left and right hemisphere were separated. The left hemisphere was stored at −18° C. for quantitative analysis of test compound levels. The right hemisphere was rinsed with phosphate-buffered saline (PBS) buffer and immediately frozen on dry ice and stored at −80° C. until homogenization for biochemical assays.
(§4) Mouse brains from non-transgenic animals were resuspended in 8 volumes of 0.4% DEA (diethylamine)/50 mM NaCl containing protease inhibitors (Roche-11873580001 or 04693159001) per gram of tissue, e.g. for 0.158 g brain, add 1.264 ml of 0.4% DEA. All samples were homogenized in the FastPrep-24 system (MP Biomedicals) using lysing matrix D (MPBio #6913-100) at 6 m/s for 20 seconds. Homogenates were centrifuged at 20800×g for 5 min and supernatants collected. Supernatants were centrifuged at 221.300×g for 50 min. The resulting high speed supernatants were then transferred to fresh eppendorf tubes. Nine parts of supernatant were neutralized with 1 part 0.5 M Tris-HCl pH 6.8 and used to quantify Aβ.
(§5) To quantify the amount of Aβ42, Aβ40, Aβ38, and Aβ37 in the soluble fraction of the brain homogenates, simultaneous specific detection of Aβ42, Aβ40, Aβ38, and Aβ37 was performed using MSD's electro-chemiluminescence multiplex detection technology. In this assay purified monoclonal antibodies specific for Abeta37 (JRD/Aβ37/3), Abeta38 (J&JPRD/Aβ38/5), Abeta40 (JRF/cAβ40/28), and Abeta42 (JRF/cAβ42/26) were coated on MSD 4-plex plates. Briefly, the standards (a dilution of synthetic Aβ42, Aβ40, Aβ38, and Aβ37) were prepared in 1.5 ml Eppendorf tube in Ultraculture, with final concentrations ranging from 10000 to 0.3 pg/m. The samples and standards were co-incubated with Sulfo-tag labelled JRF/rAβ/2 antibody to the N-terminus of Aβ as detector antibody. 50 μl of conjugate/sample or conjugate/standards mixtures were then added to the antibody-coated plate. The plate was allowed to incubate overnight at 4° C. in order to allow formation of the antibody-amyloid complex. Following this incubation and subsequent wash steps the assay was finished by adding read buffer according to the manufacturer's instructions (Meso Scale Discovery, Gaitherburg, Md.).
(§6) The SULFO-TAG emits light upon electrochemical stimulation initiated at the electrode. MSD Sector instrument SI6000 was used for signal read-out.
The results are shown in Table 5 (dose 30 mg/kg oral dosing) (value for untreated animals as control (Ctrl) was set at 100): […]

Aβtotal = test: Screening for γ-secretase-modulating activity: Aβtotal in supernatant of SKNBE2 cells carrying hAPP 695 wild type (Alphalisa); format: cell-based, human; conditions: SKNBE2 human neuroblastoma cells carrying hAPP 695 wild type; overnight incubation; Alphalisa on supernatant
Summary of the method: (§7)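 Secreted Aβ42 (C-terminal/N-terminal antibody pair) and Aβtotal (N-terminal/mid-region pair) were quantified by AlphaLISA after overnight compound exposure of wild-type hAPP 695 SKNBE2 cells at 37 °C. Values expressed relative to compound-free maximum, with IC50 from nonlinear 4-parameter regression.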

Aβ42 [1] = test: Screening for γ-secretase-modulating activity: Aβ42 in supernatant of SKNBE2 cells carrying hAPP 695 wild type (Alphalisa); format: cell-based, human; conditions: SKNBE2 human neuroblastoma cells carrying hAPP 695 wild type; overnight incubation; Alphalisa on supernatant
Summary of the method: as §7

Aβ38 = test: In vivo efficacy B-2b: brain soluble Aβ38, MSD electrochemiluminescence multiplex; conditions: mouse brain soluble fraction, dose 30 mg/kg oral dosing, 4 h after dose; untreated control set at 100; read-out: Aβ38 (% vs Ctrl)_Mean
From the text: as §1, with “Aβ38 increasing agents” for “Aβ42 lowering agent”, “increase Aβ38” for “reduce Aβ42”, “MSD” for “Meso Scale Discovery's (MSD)”, “Aβ38 increase” for “Aβ42 lowering”
as §2, with “measuring Aβ38 increase” for “measuring Aβ42 lowering”, “example, Aβ38 increasing agents” for “example, Aβ42 lowering compounds”, “The Aβ38 increasing” for “The Aβ42 lowering”, “and Aβ38” for “and Aβ42”
as §3, §4, §5, §6
In this model a Aβ38 increase compared to untreated animals would be advantageous, in particular a Aβ38 increase with at least 10%, more in particular a Aβ38 increase with at least 20%. […]

Aβ42 [2] = test: In vivo efficacy B-1b: brain soluble Aβ42, MSD electrochemiluminescence multiplex; conditions: mouse brain soluble fraction, dose 30 mg/kg oral dosing, 4 h after dose; untreated control set at 100; read-out: Aβ42 (% vs Ctrl)_Mean
From the text: as §1, §2, §3, §4, §5, §6
In this model a Aβ42 lowering compared to untreated animals would be advantageous, in particular a Aβ42 lowering with at least 10%, more in particular a Aβ42 lowering with at least 20%. […]

| pIC50 (Aβtotal) | pIC50 (Aβ42 [1]) | melting point | SMILES | response vs control in vivo at 30 mg/kg (Aβ40) | response vs control in vivo at 30 mg/kg (Aβ38) | response vs control in vivo at 30 mg/kg (Aβ42 [2]) |
| --- | --- | --- | --- | --- | --- | --- |
| < 5.00 | 7.51 | 254.3 °C | COc1c(C#N)ccc2[nH]c(-c3cn4c(n3)C(c3ccccc3Cl)OCC4)cc12 (stereo not drawn) [Compound 50, 2-[8-(2-chlorophenyl)-5,6-dihydro-8H-imidazo[2,1-c][1,4]oxazin-2-yl]-4-methoxy-1H-indole-5-carbonitrile] | 46% | 141% | 43% |
| < 5.00 | 7.72 | 297 °C | COc1c(C#N)ccc2[nH]c(-c3cn4c(n3)C(c3c(C)cccc3F)OCC4)cc12 (stereo not drawn) [Compound 138, 2-[8-(2-fluoro-6-methylphenyl)-5,6-dihydro-8H-imidazo[2,1-c][1,4]oxazin-2-yl]-4-methoxy-1H-indole-5-carbonitrile] | 90% | 117% | 75% |
| < 5.00 | 7.51 | 240.4 °C | COc1c(C#N)ccc2[nH]c(-c3nc4n(n3)CCOC4c3cccc(F)c3C)cc12 (stereo not drawn) [Compound 147, 2-[8-(3-fluoro-2-methylphenyl)-5,6-dihydro-8H-[1,2,4]triazolo[5,1-c][1,4]oxazin-2-yl]-4-methoxy-1H-indole-5-carbonitrile] | 79% | 160% | 67% |
| < 5.00 | 7.44 |  | COc1c(C#N)ccc2[nH]c(-c3cn4c(n3)C(c3c(F)cccc3C(F)(F)F)OCC4)cc12 (stereo not drawn) [Compound 153, 2-[8-[2-fluoro-6-(trifluoromethyl)phenyl]-5,6-dihydro-8H-imidazo[2,1-c][1,4]oxazin-2-yl]-4-methoxy-1H-indole-5-carbonitrile] | 76% | 236% | 60% |
| < 5.00 | 7.19 |  | COc1c(C#N)ccc2[nH]c(-c3cn4c(n3)C(c3ccc(F)c(Cl)c3)OCC4)cc12 (stereo not drawn) [Compound 154, 2-[8-(3-chloro-4-fluorophenyl)-5,6-dihydro-8H-imidazo[2,1-c][1,4]oxazin-2-yl]-4-methoxy-1H-indole-5-carbonitrile] | 101% | 170% | 90% |
| < 5.00 | 7.64 | 280.1 °C | COc1c(C#N)ccc2[nH]c(-c3cn4c(n3)C(c3cc(F)ccc3C)OCC4)cc12 (stereo not drawn) [Compound 158, 2-[8-(5-fluoro-2-methylphenyl)-5,6-dihydro-8H-imidazo[2,1-c][1,4]oxazin-2-yl]-4-methoxy-1H-indole-5-carbonitrile] | 87% | 140% | 66% |
| < 5.00 | 7.39 |  | COc1c(C#N)ccc2[nH]c(-c3cn4c(n3)C(c3cc(C(F)(F)F)ccc3F)OCC4)cc12 (stereo not drawn) [Compound 164, 2-[8-[2-fluoro-5-(trifluoromethyl)phenyl]-5,6-dihydro-8H-imidazo[2,1-c][1,4]oxazin-2-yl]-4-methoxy-1H-indole-5-carbonitrile] | 81% | 141% | 65% |
